One test addresses human thrombin. Description: Inhibition of thrombin amidase activity, chromogenic substrate (Kass). It is filed as biochemical. Particulars: average of 3 assays; read-out: Kass, inhibitor of thrombin (converted). On the procedure: For example, thrombin hydrolyzes N-benzoyl-L-phenylalanyl-L-valyl-L-arginyl-p-nitroanilide, N-benzoyl-L-Phe-L-Val-L-Arg-p-nitroanilide.
The assay is carried out by mixing 50 μL buffer (0.03M Tris, 0.15M NaCl, pH 7.4) with 25 μL of human thrombin solution (purified human thrombin, Enzyme Research Laboratories, South Bend, Indiana, at 8 NIH units/mL) and 25 μL of test compound in a solvent (50% aqueous methanol (v:v)). Then 150 μL of an aqueous solution of the chromogenic substate (at 0.25 mg/mL) are added and the rates of hydrolysis of the substrate are measured by monitoring the reactions at 405 nm for the release of p-nitroaniline. Standard curves are constructed by plotting free thrombin concentration against hydrolysis rate. The hydrolysis rates observed with test compounds are then converted to "free thrombin" values in the respective assays by use of the standard curves. The bound thrombin (bound to test compound) is calculated by subtracting the amount of free thrombin observed in each assay from the known initial amount of thrombin used in the assay. The amount of free inhibitor in each assay is calculated by subtracting the number of moles of bound thrombin from the number of moles of added inhibitor (test compound). […]
Kass is calculated for a range of concentrations of test compounds and the mean value reported in units of liter per mole.

In a further test the test system is rabbit AV shunt model. Put plainly: Arterio-venous (AV) shunt model in the rabbit. The format is in vivo. The note with it: i.v. infusion. The text has this:
Arterio-Venous (AV) Shunt Model in the Rabbit
Efficacy and potency of a compound are studied in a model of thrombosis in the anesthetized rabbit in which blood is shunted from the carotid artery through tubing to the left jugular vein. The shunt houses a thread upon which thrombotic material is deposited and is quantified in the presence and absence of a test compound. Specifically, the left jugular vein and right carotid artery are cannulated (PE 200 tubing, 22 cm). The tip of the arterial tubing is advanced approximately 1 cm and the tip of the venous tubing is advanced approximately 1 cm. The arterial and venous shunt segments are friction fitted into a center section of larger tubing (PE 260, 6 cm) with 4 strands of cotton thread (5.5 cm each), knotted together with a single knot at the end, in the lumen. Blood is circulated through the shunt for 15 min. The arterial and venous segments are clamped, the center section is detached, held vertically and the thread is carefully removed and weighed. The weight of a wet thread (38 mg, average of 10-4-stranded identical lengths) is subtracted from the total weight of the thread and thrombus. A drug is infused through a second catheter in the right jugular vein (2 cm inside vessel) starting 15 min before and throughout the 15 min period of blood circulation through the shunt. […]

In a further test the target is factor Xa. Put plainly: Inhibition of factor Xa amidase activity, chromogenic substrate (Kass). The format is biochemical, human. The note with it: average of 3 assays; read-out: Kass, inhibitor of factor Xa (converted).

The record followed here is patent publication US6214841A, “Antithrombotic compound” (Eli Lilly and Company, priority 1999, dated 2001).

Consider `N=C(N)NCCCC(NC(=O)[C@@H]1CCCN1C(=O)[C@@H]1NCC[C@H]2CCCC[C@H]21)C(=O)c1nc2ccccc2s1` (mixture of isomers) [DL-Arg-Ia, (1R,4aR,8aR)-Perhydroisoquinolin-1-ylcarbonyl-N-[(1RS)-4-[(aminoiminomethyl)amino]-1-(benzothiazol-2-ylcarbonyl)-butyl]-L-prolinamide. 1.5 H2 SO4], for which the Kd at human thrombin is 2.84 nM; on factor Xa it was 3.32 nM. Besides, the “ED50% (infusion dose to reduce thrombus weight by 50%)” value with rabbit AV shunt model came to 0.008 mg/kg/h.
